Here are results for 2 compounds from paper PMC4972871, “Optimization of Electrospray Ionization by Statistical Design of Experiments and Response Surface Methodology: Protein–Ligand Equilibrium Dissociation Constant Determinations” (Journal of the American Society for Mass Spectrometry, 2016).

As a reminder, the Kd is the constant that tells how readily two partners part at equilibrium. Read a low Kd as higher affinity.

SMILES strings stand for the structures.

Assay [1] concerns the target T1, Plasmodium vivax guanylate kinase (PvGK) (Plasmodium vivax, UniProt A5K709).
T1 construct: gene PVX_099895; Full-length guanylate kinase with an N-terminal 6-histidine tag (23545 Da)
In words: native ESI-FT-ICR-MS titration (optimized source); confirmed by competition with GMP ([…]). In kind it is binding.

For assay [2], the target named is T1, Plasmodium vivax guanylate kinase (PvGK). Briefly: native ESI-FT-ICR-MS titration (optimized source conditions). In kind it is binding.

T1 sequence (A5K709 entry or part of it): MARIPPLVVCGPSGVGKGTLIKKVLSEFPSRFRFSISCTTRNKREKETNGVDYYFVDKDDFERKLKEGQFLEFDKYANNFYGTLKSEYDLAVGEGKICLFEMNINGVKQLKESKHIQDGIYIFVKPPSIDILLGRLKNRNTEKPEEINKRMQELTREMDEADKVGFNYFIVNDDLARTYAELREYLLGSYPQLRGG

Turning to `Nc1nc2c(ncn2[C@@H]2O[C@H](COP(=O)(O)OP(=O)(O)O)[C@@H](O)[C@H]2O)c(=O)[nH]1` [GDP], the Kd in assay [1] was determined as 0.3 ± 0.03 µM. `Nc1nc2c(ncn2[C@@H]2O[C@H](COP(=O)(O)O)[C@@H](O)[C@H]2O)c(=O)[nH]1` [GMP]: in assay [2], the Kd stood at 1.84 ± 0.11 µM.
